Results published in article PMC7998705, “Dose-Dependent Solubility–Permeability Interplay for Poorly Soluble Drugs under Non-Sink Conditions” (Pharmaceutics, 2021).
In brackets after ≈: the same amount, converted by molar mass. Each block holds one molecule with its values, some of them ahead of it.

Tests used:
[1] = Theoretical calculation about permeability; conditions: for Apparent permeability and flux reduced to (fraction): calculated, sink conditions, donor 5 μg/mL; for Papp: not told; for Calculated Pm (app): Equation (3); for Calculated Daq (app): Equation (5), hUWL (app) = 100 μm; for Calculated Pm (U): pH 6.5 buffer
Procedure: Based on Fick’s first law, flux in the drug permeation can be expressed as shown in Equation (1): [36, 43]
As described in the introduction, overall permeation can be divided into membrane permeation and UWL permeation.
Pm (app) is calculated using the fraction of UFDs (FU) as shown in Equation (3):(3) Pm (app)= FUPm (U) where Pm (U) is the intrinsic permeability of UFDs.
PUWL (app) can be expressed using the apparent aqueous diffusivity (Daq (app)) from Fick’s first law as shown in Equation (5): (5) PUWL (app)= Daq (app)/hUWL (app) where hUWL (app) is the apparent thickness of the UWL. When there are no solubilizer additives in the drug formulation or test media in the permeability measurements, Equation (5) can be described as shown in Equation (6):(6) PUWL (U)= Daq (U)/hUWL (U) where hUWL (U) is the intrinsic thickness of the UWL and Daq (U) is the intrinsic aqueous diffusivity of UFDs. The thickness of the UWL can be determined based on rotation speed in the flux experiment. If the rotation speed is constant, we can assume that the thickness of the UWL is constant, independent of the addition of solubilizer additives, as shown in Equation (7):(7) hUWL (app)= hUWL (U)
Substituting hUWL (app) of Equation (5) and hUWL (U) of Equation (6) for Equation (7), PUWL (app) is described as shown in Equation (8):(8) PUWL (app)= PUWL (U)×Daq (app)/Daq (U)
The apparent aqueous diffusivity (Daq (app)) is a combined total of each fraction of aqueous diffusivity as shown in Equation (9):(9) Daq (app)= FUDaq (U) + (1−FU)Daq (B) where FU is the same fraction of UFDs as in Equation (4) and Daq (B) is the aqueous diffusivity of drug molecules bound to solubilizer additives. PUWL (app) can be calculated by Equations (6), (8), and (9) as shown in Equation (10):(10) PUWL (app)= 1/hUWL (app) {FUDaq(U) + (1−FU)Daq (B)}
Using the MW of the model compounds, each Daq (U) was calculated (calculated Daq (U) in Table 4). The UWL thickness (hUWL (app) or hUWL (U)) for the MicroFlux^TM measurements in this study was estimated to be around 100 μm based on previous studies. The intrinsic UWL permeability of UFDs (PUWL (U)) was then calculated by Equation (6) (calculated PUWL (U) in Table 4).
The apparent membrane permeability (Pm (app)) was calculated by Equation (3) using the fraction of UFDs (FU) in Table 3 and Pm (U) (calculated Pm (app) in Table 5). […] The apparent aqueous diffusivity (Daq (app)) was calculated by Equation (5) using PUWL (app) and hUWL (app) = 100 μm (calculated Daq (app) in Table 5). Substituting FU, Daq (app), and Daq (U) in Equation (9), the aqueous diffusivity of drug molecules bound to SLS (Daq (B)) was calculated (calculated Daq (B) in Table 5). As for triamcinolone, Daq (B) was not calculated in this study. […] As the aggregated number of SLS in aqueous solutions was reported to be 62, their micellar weight appeared to be around 18,000 Da. […] Assuming this micellar size is constant, permeability and flux could be calculated by Equation (10) and Equation (12) using the apparent solubility.
When pH 6.5 buffer is in the donor chamber, the apparent UWL thickness is expressed using Equations (2) and (6) as shown in Equation (14):(14) hUWL (app)=Daq (U)(1/Papp−1/Pm (U))

[2] = pH 6.5
Procedure: (§1) The concentration–time profiles were determined via manual sampling from the donor chambers and acceptor chambers during flux measurements. At 0, 30, 60, 120, 240, and 360 min, 100 μL of the acceptor chamber solution was withdrawn and diluted to 100 μL (2× dilution) of 3:2 DMA:ethylene glycol (v/v). At the same time point, 400 μL of the donor chamber solution was withdrawn and filtered through a polytetrafluoroethylene (PTFE) membrane filter of 0.22 μm pose size. Then, 100 μL of the filtered solution was diluted to 100 μL (2× dilution) of 3:2 DMA:ethylene glycol (v/v). The sample concentration was determined by ultra-high-performance liquid chromatography (UHPLC).
(§2) The sample concentrations were measured on a Waters (Milford, MA) Acquity UPLC H-Class system. An Acquity UPLC® BEH Shield RP18 1.7 μm, 2.1 × 50 mm, was used for chromatographic separation. A gradient mobile phase, spanning 95:5 to 0:100 (v/v) water:MeCN (both containing 0.05%TFA) over 2.0 min, was pumped at a flow rate of 1.0 mL/min.

[3] = set-up: method as in PMID 20006692; conditions: 500 mg dose; cited from earlier work
physchem = conditions: 37 °C, thermodynamic from solid
Procedure: as §1, §2

[4] = 37 °C; cited from earlier work
[5] = Flux measurements by MicroFlux; conditions: for Papp: not told, sink conditions, average ± SD (n = 3); for Flux in pH 6.5 buffer + 0.05% SLS compared with pH 6.5 buffer: sink conditions (5 μg/mL griseofulvin, 100 μg/mL triamcinolone)
Procedure: as §1
From the obtained concentration–time profiles in the acceptor chambers, the flux (J) was calculated. The flux refers to the mass transfer through the membrane, and it is defined as the total amount of material crossing one unit area of the membrane per unit time, as described by Equation (11):(11) J (t)=1/A·dm/dt= V/A·dC(t)/dt where dm/dt (μg/mL) is the total amount of material crossing the membrane per unit time, A is the area of the membrane (1.54 cm^2), V is the volume of the acceptor chamber (20 mL), and dC(t)/dt (μg/(mL⋅min)) is the slope of the concentration–time profiles in the acceptor chambers. Time intervals were selected in each test to exclude the lag time of the concentration–time profile and calculate the initial flux. […] Based on Fick’s first law, assuming the sink condition in the acceptor chambers, the flux can be described by Equation (12):(12) J (t)=PappCD(t) where Papp is the apparent permeability of drugs and CD (t) is the drug concentration in the donor chambers.
The sample concentrations were measured on a Waters (Milford, MA) Acquity UPLC H-Class system. An Acquity UPLC® BEH Shield RP18 1.7 μm, 2.1 × 50 mm, was used for chromatographic separation. A gradient mobile phase, spanning 95:5 to 0:100 (v/v) water:MeCN (both containing 0.05%TFA) over 2.0 min, was pumped at a flow rate of 1.0 mL/min. […] The injection volume and ultraviolet (UV) wavelength for triamcinolone were 1 μL and 292 nm, respectively.

[6] = set-up: method as in PMID 17724660, PMID 8668668, PMID 1808607; conditions: partitioning between octanol and water; cited from earlier work
[7] = pH 6.5, pH 6.5 buffer + 0.05% SLS, read-out: Calculated Papp (converted)
[8] = pH 6.5, pH 6.5 buffer, read-out: Calculated Papp (U) (converted)
[9] = pH 6.5, Measured Papp (U), pH 6.5 buffer
[10] = pH 6.5, Measured Papp, pH 6.5 buffer + 0.05% SLS

Structure (SMILES): COC1=CC(=O)C[C@@H](C)[C@]12Oc1c(Cl)c(OC)cc(OC)c1C2=O [Griseofulvin]
Apparent permeability and flux reduced to (fraction) ([1]; apparent solubility increased by 5 times): about 1/4 | Apparent permeability and flux reduced to (fraction) ([1]; apparent solubility increased by 10 times): 1/7 | Calculated Daq (B) ([1]; drug molecules bound to SLS, Equation (9)): 8.37 × 10^−7 cm^2/s | Papp [1, 7]: 108 ×10⁻⁶ cm/s | Papp [1, 8]: 247 ×10⁻⁶ cm/s | Calculated PUWL (app) ([1]; pH 6.5 buffer + 0.05% SLS, Equation (2)): 255 ×10⁻⁶ cm/s | Calculated Pm (app) ([1]; pH 6.5 buffer + 0.05% SLS): 187 ×10⁻⁶ cm/s | Calculated Daq (app) ([1]; pH 6.5 buffer + 0.05% SLS): 2.56 × 10^−6 cm^2/s | Calculated Pm (U) ([1]; Equation (2)): 473 ×10⁻⁶ cm/s | Solubility change by the addition of 0.05% SLS [2]: about 2.5 fold | UFD Amount [2]: 10.75 µg/mL | Increase of in vivo permeability and in vivo drug absorption by solid drugs in the UWL [3]: about twofold | solubility (physchem; pH 6.5, aqueous buffer): 10.8 ± 0.38 µg/mL (≈ 30.5 µM) | solubility (physchem; pH 6.5, aqueous with cosolvent or surfactant or cyclodextrin): 27.4 ± 0.07 µg/mL (≈ 77.7 µM) | Aqueous solubility [4]: 29.9 [40, 41] μg/mL | Sample concentration in the donor chamber ([5]; 50, 200 and 1000 μg/mL doses (non-sink), pH 6.5 buffer): about 10 μg/mL | Sample concentration in the donor chamber ([5]; 50, 200 and 1000 μg/mL doses (non-sink), pH 6.5 buffer + 0.05% SLS): about 25 μg/mL | Apparent permeability in pH 6.5 buffer + 0.05% SLS compared with pH 6.5 buffer ([5]; based on Equation (12)): almost half | Increase of total permeated amount when the dose amount exceeded solubility ([5]; donor concentration almost constant): 20–30% | Flux increase depending on the dose amount ([5]; non-sink conditions, both pH 6.5 buffer and pH 6.5 buffer + 0.05% SLS): 10–30% | Papp [5, 9]: 247 ×10⁻⁶ cm/s | Papp [5, 10]: 108 ×10⁻⁶ cm/s | Flux in pH 6.5 buffer + 0.05% SLS compared with pH 6.5 buffer [5]: almost half

Papp [1, 7]: 4.38 ×10⁻⁶ cm/s | Papp [1, 8]: 5.07 ×10⁻⁶ cm/s | Calculated Pm (app) ([1]; pH 6.5 buffer + 0.05% SLS): 5 ×10⁻⁶ cm/s | Calculated Daq (app) ([1]; pH 6.5 buffer + 0.05% SLS): 3.54 × 10^−7 cm^2/s | Calculated Pm (U) ([1]; Equation (2)): 5.12 ×10⁻⁶ cm/s | Calculated Pm (U) ([1]; Equation (2), listed as triamcinolone): around 0.0003 cm/min | Sample concentration in the donor chamber ([5]; 500, 2000 and 10,000 μg/mL doses (non-sink), pH 6.5 buffer and pH 6.5 buffer + 0.05% SLS): about 200 μg/mL | Papp [5, 9]: 5.07 ×10⁻⁶ cm/s | Papp [5, 10]: 4.38 ×10⁻⁶ cm/s | Flux and donor concentration at the 10,000 μg/mL dose, higher than at 500 and 2000 μg/mL doses ([5]; pH 6.5 buffer + 0.05% SLS, non-sink conditions): about 10% | Flux in pH 6.5 buffer + 0.05% SLS compared with pH 6.5 buffer [5]: almost similar values
Structure (SMILES): C[C@]12C=CC(=O)C=C1CC[C@H]1[C@@H]3C[C@@H](O)[C@](O)(C(=O)CO)[C@@]3(C)C[C@H](O)[C@@]12F [Triamcinolone]
Log P [6]: 1.03 [40, 42]
